Source: publication PMC7037671, “Naphthoquinone Derivatives with Anti-Inflammatory Activity from Mangrove-Derived Endophytic Fungus Talaromyces sp. SK-S009” (Molecules, 2020)
Where two headings read alike, the source gives them in different places.

Assays:
RAW 264.7 cells = experiment: Cytotoxicity / cell viability by MTT assay; assay type: cell-based, murine; conditions: CC50 (MTT) / IC50 (NO production)
Method: (§1) The nitrite/nitrate oxidized from NO was detected by the Griess reagent as previously reported with slight modifications. The murine macrophage cell line (RAW 264.7 cells) were seeded in 96-well plates at a density of 1 × 10^5 cells/well and preincubated for 12 h. The tested compounds were dissolved in dimethylsulfoxide (DMSO) and diluted with Dulbecco’s Modified Eagle Medium (DMEM) medium to a final concentration (final DMSO concentration <0.1% in all assays). Indomethacin was used as the positive control. Cells were stimulated with 1µg/mL of lipopolysaccharide (LPS, Sigma, St. Louis, MO, USA) with or without tested compounds for 24 h. Then culture supernatant was mixed with an equal volume of Griess reagent I and II (Beyotime, Shanghai, China), and measured at 540 nm using a microplate reader (Bio-Rad Laboratories, Inc., Kyoto, Japan). Cell viability was evaluated using MTT assay.

[1] = Cytotoxicity / cell viability by MTT assay; assay type: cell-based, murine; conditions: mouse, RAW 264.7 cells, MTT assay
Method: as §1

[2] = tested on: LPS-induced NO production in the murine macrophage cell line (RAW 264.7 cells); experiment: Inhibition of LPS-induced NO production (Griess reagent); assay type: cell-based; conditions: Mus musculus, read-out: IC50 against LPS-induced NO production
Method: as §1

interleukin (IL)-1β mRNA = experiment: Real-time PCR, IL-1β mRNA expression in LPS-stimulated RAW 264.7 cells; assay type: cell-based, murine
Method: (§2) Figure 4 RAW 264.7 murine macrophage cells were pre-incubated for 12h, and then cells were pretreated with compound 9 at the indicated concentration for 1 h and incubated with LPS (1 μg/mL) for 12h (real-time PCR). The effect of compound 9 on the mRNA expressions of inducible nitric oxide synthase (iNOS) (A), cyclooxygenase-2 (COX-2)(B), tumor necrosis factor (TNF)-α (C), interleukin (IL)-6 (D), and IL-1β (E) were detected by real-time PCR. The data represent the mean values ± SD of three experiments, * p < 0.05, ** p < 0.01 compared to LPS-treated group.
(§3) RAW264.7 cells were placed in a 6-well plate at a density of 1 × 10^6 cells/well and incubated for 12 h. Cultured cells were pretreated with compound 9 (1, 2, 4 μM/L) for 1 h and incubated with LPS (1 μg/mL) for 12 h. RNA was extracted with Trizol Reagent (Takara Bio Inc., Otsu, Japan) according to the manufacturer’s instructions, and cDNA was reverse transcribed from total RNA using a Superscript III system (Takara Bio Inc., Otsu, Japan). PCR amplification was carried out using PikoReal™ (Thermo Fisher Scientific, MA, US) and specific primers. The optimal conditions for PCR amplification of the cDNA were established by following the manufacturer’s instructions. Relative gene expression was calculated using the comparative Ct method (2^−ΔΔCt) with glyceraldehyde-3-phosphate dehydrogenase (GAPDH) as an internal control. […]

IL-6 mRNA = experiment: Real-time PCR, IL-6 mRNA expression in LPS-stimulated RAW 264.7 cells; assay type: cell-based, murine
Method: as §2, §3

[3] = tested on: cyclooxygenase-2 (COX-2) mRNA; experiment: Real-time PCR, COX-2 mRNA expression in LPS-stimulated RAW 264.7 cells; assay type: cell-based, murine; conditions: LPS (1 μg/mL) 12 h, 1 h pretreatment, 1, 2, 4 μM, RT-PCR
Method: as §2, §3

[4] = tested on: tumor necrosis factor (TNF)-α mRNA; experiment: Real-time PCR, TNF-α mRNA expression in LPS-stimulated RAW 264.7 cells; assay type: cell-based, murine
Method: as §2, §3

[5] = tested on: inducible nitric oxide synthase (iNOS) mRNA; experiment: Real-time PCR, iNOS mRNA expression in LPS-stimulated RAW 264.7 cells; assay type: cell-based, murine; conditions: LPS (1 μg/mL) 12 h, 1 h pretreatment, 1, 2, 4 μM, RT-PCR
Method: as §2, §3

[6] = RAW 264.7 macrophage cells, means ± SD, n = 3, read-out: CC50
[7] = RAW264.7, RAW 264.7 cells, LPS 1 µg/mL, 24 h, means ± SD, n = 3
[8] = RAW 264.7 macrophage cells, tested at 50 μM, read-out: CC50 (cytotoxicity, class symbol)
[9] = 2.0 μM, compared with the control groups
[10] = LPS (1 μg/mL) 12 h, 1 h pretreatment, 1, 2, 4 μM, RT-PCR

SMILES | SI (selectivity index, CC50/IC50) (RAW 264.7 cells) | CC50 at 24 h [1, 6] [µM] | IC50 [2, 7] [µM] | CC50 at 24 h [1, 8] [µM] | other results
COc1cc(O)c2c(c1)C(=O)C(C[C@H](C)O)=C(C)C2=O [Compound 1, Talanaphthoquinone A] | 7.9 | 30.7 ± 0.5 | 3.9 ± 0.5 | – | –
COC1=CC(=O)c2c(O)c(C)c3c(c2C1=O)OC(CO)C3 (stereo not shown) [Compound 2, Talanaphthoquinone B] | – | – | 49.7 ± 1.5 | > 50 | melting point: 157.7 to 159.3 °C
COC1=CC(=O)c2c(O)c(C)c3c(c2C1=O)OC(C)C3 (stereo not shown) [Compound 3, anhydrojavanicin] | – | – | 16 ± 0.2 | – | CC50 at 24 h ([1]; tested at 50 μM, read-out: CC50 (cytotoxicity, class symbol)): > 50 µM
COC1=CC(=O)c2c(O)c(CO)c3c(c2C1=O)OC(C)C3 (stereo not shown) [Compound 4, 2,3-dihydro-5-hydroxy-4-hydroxymethyl-8-methoxy-2-methylnaphtho[1,2-b]furan-6,9-dione] | – | – | 22.6 ± 0.5 | > 50 | –
COC1=CC(=O)c2c(O)c(C)c3cc(C)oc3c2C1=O [Compound 5, anhydrojavanicin] | – | – | 11.2 ± 0.3 | > 50 | –
COC1=CC(=O)c2c(O)c3c(c(O)c2C1=O)C=C(C)OC3 [Compound 6, anhydrofusarubin] | – | – | – | > 50 | IC50 ([2]; RAW264.7, 24 h): 5.2 ± 0.1 µM
CCc1c(OC)cc2c(c1O)C(=O)C=C(OC)C2=O [Compound 8, 6-ethyl-2,7-dimethoxyjuglone] | – | – | 7.7 ± 0.3 | > 50 | –
COC1=CC(=O)c2c(cc(OC)c(C(C)OC(C)=O)c2O)C1=O (stereo not shown) [Compound 9, 6-[1-(acetyloxy)ethyl]-5-hydroxy-2,7-dimethoxy-1,4-naphthalenedione] | 29.6 | 50.3 ± 1.5 | 1.7 ± 0.2 | – | inhibition of IL-1β mRNA expression (interleukin (IL)-1β mRNA; [9]): about 80%; effect on IL-1β mRNA expression (interleukin (IL)-1β mRNA; [10]): apparently reduced; inhibition of IL-6 mRNA expression (IL-6 mRNA; [9]): about 80%; effect on IL-6 mRNA expression (IL-6 mRNA; [10]): apparently reduced; effect on COX-2 mRNA expression [3]: apparently reduced; inhibition of TNF-α mRNA expression [4, 9]: about 80%; effect on TNF-α mRNA expression [4, 10]: apparently reduced; effect on iNOS mRNA expression [5]: apparently reduced
COC1=CC(=O)c2c(cc(OC)c(C(C)O)c2O)C1=O (stereo not shown) [Compound 10, 5-hydroxy-6-(1-hydroxyethyl)-2,7-dimethoxy-1,4-naphthalenedione] | 2.1 | 15.8 ± 0.4 | 7.5 ± 0.2 | – | –
COC1=CC(=O)c2c(O)c(C)c(CC(C)O)c(O)c2C1=O (stereo not shown) [Compound 11, solaniol] | 3.8 | – | 15.5 ± 0.6 | – | CC50 at 24 h ([1]; means ± SD, n = 3, read-out: CC50): 59.2 ± 1.5 µM
COC1=CC(=O)c2c(O)c(C)c(CC(C)=O)c(O)c2C1=O [Compound 12, javanicin] | 8.6 | 48.4 ± 1.3 | 5.6 ± 0.3 | – | –
COc1ccc2c(c1)c(CC(=O)O)c(C)n2C(=O)c1ccc(Cl)cc1 [Indomethacin, reference compound] | – | – | 26.3 ± 0.6 | – | –
